Reference: PubChem BioAssay (NCI)
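How tested: cells in 96-well plates exposed to compound for 48 hours at five concentrations. The concentration for full growth arrest is given as TGI.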

Key:
Assay in all cases: DTP human tumour cell line panel, 48 h
786-0 renal = test system: 786-0 renal
A498 renal = test system: A498 renal
A549 NSCLC = test system: A549 NSCLC
ACHN renal = test system: ACHN renal
BT-549 breast = test system: BT-549 breast
CCRF-CEM leukemia = test system: CCRF-CEM leukemia
COLO 205 colon = test system: COLO 205 colon
DU-145 prostate = test system: DU-145 prostate
EKVX NSCLC = test system: EKVX NSCLC
HCC-2998 colon = test system: HCC-2998 colon
HCT-116 colon = test system: HCT-116 colon
HCT-15 colon = test system: HCT-15 colon
HL-60(TB) leukemia = test system: HL-60(TB) leukemia
HOP-62 NSCLC = test system: HOP-62 NSCLC
HOP-92 NSCLC = test system: HOP-92 NSCLC
HS 578T breast = test system: HS 578T breast
HT29 colon = test system: HT29 colon
IGROV1 ovarian = test system: IGROV1 ovarian
KM12 colon = test system: KM12 colon
LOX IMVI melanoma = test system: LOX IMVI melanoma
M14 melanoma = test system: M14 melanoma
MALME-3M melanoma = test system: MALME-3M melanoma
MCF7 breast = test system: MCF7 breast
MDA-MB-231 breast = test system: MDA-MB-231 breast
MDA-MB-435 = test system: MDA-MB-435
MDA-N = test system: MDA-N
MOLT-4 leukemia = test system: MOLT-4 leukemia
NCI-H226 lung = test system: NCI-H226 lung
NCI-H23 lung = test system: NCI-H23 lung
NCI-H460 lung = test system: NCI-H460 lung
NCI-H522 lung = test system: NCI-H522 lung
NCI/ADR-RES ovarian = test system: NCI/ADR-RES ovarian
OVCAR-3 ovarian = test system: OVCAR-3 ovarian
OVCAR-4 ovarian = test system: OVCAR-4 ovarian
OVCAR-5 ovarian = test system: OVCAR-5 ovarian
OVCAR-8 ovarian = test system: OVCAR-8 ovarian
PC-3 prostate = test system: PC-3 prostate
RPMI-8226 leukemia = test system: RPMI-8226 leukemia
RXF 393 renal = test system: RXF 393 renal
SF-268 CNS = test system: SF-268 CNS
SF-295 CNS = test system: SF-295 CNS
SF-539 CNS = test system: SF-539 CNS
SK-MEL-2 melanoma = test system: SK-MEL-2 melanoma
SK-MEL-28 melanoma = test system: SK-MEL-28 melanoma
SK-MEL-5 melanoma = test system: SK-MEL-5 melanoma
SK-OV-3 ovarian = test system: SK-OV-3 ovarian
SN12C renal = test system: SN12C renal
SNB-19 CNS = test system: SNB-19 CNS
SR leukemia = test system: SR leukemia
SW-620 colon = test system: SW-620 colon
T-47D breast = test system: T-47D breast
TK-10 renal = test system: TK-10 renal
U251 CNS = test system: U251 CNS
UACC-257 melanoma = test system: UACC-257 melanoma
UACC-62 melanoma = test system: UACC-62 melanoma
UO-31 renal = test system: UO-31 renal
CAKI-1 renal = test system: CAKI-1 renal
K-562 leukemia = test system: K-562 leukemia
SNB-75 CNS = test system: SNB-75 CNS

C=C1C(=O)O[C@H]2C[C@@H]1C(=O)CC(C)CCCC(C)=CCC[C@@]2(C)O (some centres not stated)
TGI (786-0 renal): > 25 µM | TGI (A498 renal): > 25 µM | TGI (A549 NSCLC): > 25 µM | TGI (ACHN renal): > 25 µM | TGI (BT-549 breast): > 25 µM | TGI (CCRF-CEM leukemia): > 25 µM | TGI (COLO 205 colon): > 25 µM | TGI (DU-145 prostate): > 25 µM | TGI (EKVX NSCLC): > 25 µM | TGI (HCC-2998 colon): > 25 µM | TGI (HCT-116 colon): > 25 µM | TGI (HCT-15 colon): > 25 µM | TGI (HL-60(TB) leukemia): > 25 µM | TGI (HOP-62 NSCLC): > 25 µM | TGI (HOP-92 NSCLC): > 25 µM | TGI (HS 578T breast): > 25 µM | TGI (HT29 colon): > 25 µM | TGI (IGROV1 ovarian): > 25 µM | TGI (KM12 colon): > 25 µM | TGI (LOX IMVI melanoma): > 25 µM | TGI (M14 melanoma): > 25 µM | TGI (MALME-3M melanoma): > 25 µM | TGI (MCF7 breast): > 25 µM | TGI (MDA-MB-231 breast): > 25 µM | TGI (MDA-MB-435): > 25 µM | TGI (MDA-N): > 25 µM | TGI (MOLT-4 leukemia): > 25 µM | TGI (NCI-H226 lung): > 25 µM | TGI (NCI-H23 lung): > 25 µM | TGI (NCI-H460 lung): > 25 µM | TGI (NCI-H522 lung): > 25 µM | TGI (NCI/ADR-RES ovarian): > 25 µM | TGI (OVCAR-3 ovarian): > 25 µM | TGI (OVCAR-4 ovarian): > 25 µM | TGI (OVCAR-5 ovarian): > 25 µM | TGI (OVCAR-8 ovarian): > 25 µM | TGI (PC-3 prostate): > 25 µM | TGI (RPMI-8226 leukemia): > 25 µM | TGI (RXF 393 renal): > 25 µM | TGI (SF-268 CNS): > 25 µM | TGI (SF-295 CNS): > 25 µM | TGI (SF-539 CNS): > 25 µM | TGI (SK-MEL-2 melanoma): > 25 µM | TGI (SK-MEL-28 melanoma): > 25 µM | TGI (SK-MEL-5 melanoma): > 25 µM | TGI (SK-OV-3 ovarian): > 25 µM | TGI (SN12C renal): > 25 µM | TGI (SNB-19 CNS): > 25 µM | TGI (SR leukemia): > 25 µM | TGI (SW-620 colon): > 25 µM | TGI (T-47D breast): > 25 µM | TGI (TK-10 renal): > 25 µM | TGI (U251 CNS): > 25 µM | TGI (UACC-257 melanoma): > 25 µM | TGI (UACC-62 melanoma): > 25 µM | TGI (UO-31 renal): > 25 µM

Cc1cccc2c1CC(Cc1ccccc1C(=O)O)C2=O (configuration not stated)
TGI (786-0 renal): > 100 µM | TGI (A549 NSCLC): > 100 µM | TGI (ACHN renal): > 100 µM | TGI (BT-549 breast): > 100 µM | TGI (CAKI-1 renal): > 100 µM | TGI (CCRF-CEM leukemia): > 100 µM | TGI (COLO 205 colon): > 100 µM | TGI (DU-145 prostate): > 100 µM | TGI (EKVX NSCLC): > 100 µM | TGI (HCC-2998 colon): > 100 µM | TGI (HCT-116 colon): > 100 µM | TGI (HCT-15 colon): > 100 µM | TGI (HL-60(TB) leukemia): > 100 µM | TGI (HOP-62 NSCLC): > 100 µM | TGI (HOP-92 NSCLC): > 100 µM | TGI (HS 578T breast): > 100 µM | TGI (HT29 colon): > 100 µM | TGI (IGROV1 ovarian): > 100 µM | TGI (K-562 leukemia): > 100 µM | TGI (KM12 colon): > 100 µM | TGI (LOX IMVI melanoma): > 100 µM | TGI (M14 melanoma): > 100 µM | TGI (MALME-3M melanoma): > 100 µM | TGI (MCF7 breast): > 100 µM | TGI (MDA-MB-231 breast): > 100 µM | TGI (MDA-MB-435): > 100 µM | TGI (MDA-N): > 100 µM | TGI (MOLT-4 leukemia): > 100 µM | TGI (NCI-H226 lung): > 100 µM | TGI (NCI-H23 lung): > 100 µM | TGI (NCI-H460 lung): > 100 µM | TGI (NCI-H522 lung): > 100 µM | TGI (NCI/ADR-RES ovarian): > 100 µM | TGI (OVCAR-3 ovarian): > 100 µM | TGI (OVCAR-4 ovarian): > 100 µM | TGI (OVCAR-5 ovarian): > 100 µM | TGI (OVCAR-8 ovarian): > 100 µM | TGI (PC-3 prostate): > 100 µM | TGI (RPMI-8226 leukemia): > 100 µM | TGI (RXF 393 renal): > 100 µM | TGI (SF-268 CNS): > 100 µM | TGI (SF-295 CNS): > 100 µM | TGI (SF-539 CNS): > 100 µM | TGI (SK-MEL-2 melanoma): > 100 µM | TGI (SK-MEL-28 melanoma): > 100 µM | TGI (SK-MEL-5 melanoma): > 100 µM | TGI (SK-OV-3 ovarian): > 100 µM | TGI (SN12C renal): > 100 µM | TGI (SNB-19 CNS): > 100 µM | TGI (SNB-75 CNS): > 100 µM | TGI (SR leukemia): > 100 µM | TGI (SW-620 colon): > 100 µM | TGI (T-47D breast): > 100 µM | TGI (TK-10 renal): > 100 µM | TGI (U251 CNS): > 100 µM | TGI (UACC-257 melanoma): > 100 µM | TGI (UACC-62 melanoma): > 100 µM | TGI (UO-31 renal): > 100 µM

CCOC(=O)[C@@H](Cc1ccc(CCl)cc1)NC(C)=O
TGI (786-0 renal): 40.4 µM | TGI (A549 NSCLC): > 100 µM | TGI (ACHN renal): 43.5 µM | TGI (BT-549 breast): > 100 µM | TGI (CAKI-1 renal): 68.6 µM | TGI (CCRF-CEM leukemia): > 100 µM | TGI (COLO 205 colon): 43.9 µM | TGI (DU-145 prostate): > 100 µM | TGI (EKVX NSCLC): 54.9 µM | TGI (HCC-2998 colon): 40.4 µM | TGI (HCT-116 colon): > 100 µM | TGI (HCT-15 colon): 94.1 µM | TGI (HL-60(TB) leukemia): 70.7 µM | TGI (HOP-62 NSCLC): 75.1 µM | TGI (HOP-92 NSCLC): 43.6 µM | TGI (HS 578T breast): 60.8 µM | TGI (HT29 colon): > 100 µM | TGI (IGROV1 ovarian): 51.2 µM | TGI (K-562 leukemia): > 100 µM | TGI (KM12 colon): 40.5 µM | TGI (LOX IMVI melanoma): 37 µM | TGI (M14 melanoma): 89.3 µM | TGI (MALME-3M melanoma): 37.7 µM | TGI (MCF7 breast): 83.5 µM | TGI (MDA-MB-231 breast): 81.6 µM | TGI (MDA-MB-435): 48.7 µM | TGI (MDA-N): 40.2 µM | TGI (MOLT-4 leukemia): > 100 µM | TGI (NCI-H226 lung): 98.5 µM | TGI (NCI-H23 lung): 68.3 µM | TGI (NCI-H460 lung): 43.2 µM | TGI (NCI-H522 lung): 35.5 µM | TGI (NCI/ADR-RES ovarian): 43.9 µM | TGI (OVCAR-3 ovarian): > 100 µM | TGI (OVCAR-4 ovarian): 41.1 µM | TGI (OVCAR-5 ovarian): 44.2 µM | TGI (OVCAR-8 ovarian): > 100 µM | TGI (PC-3 prostate): > 100 µM | TGI (RPMI-8226 leukemia): 88.4 µM | TGI (RXF 393 renal): 30.3 µM | TGI (SF-268 CNS): 67 µM | TGI (SF-295 CNS): > 100 µM | TGI (SF-539 CNS): 36.4 µM | TGI (SK-MEL-2 melanoma): 39.6 µM | TGI (SK-MEL-28 melanoma): 86.2 µM | TGI (SK-MEL-5 melanoma): 31.5 µM | TGI (SK-OV-3 ovarian): > 100 µM | TGI (SN12C renal): 49.6 µM | TGI (SNB-19 CNS): 79.2 µM | TGI (SNB-75 CNS): 59 µM | TGI (SR leukemia): > 100 µM | TGI (SW-620 colon): > 100 µM | TGI (T-47D breast): 93.7 µM | TGI (TK-10 renal): 23.4 µM | TGI (U251 CNS): 40.5 µM | TGI (UACC-257 melanoma): 40.2 µM | TGI (UACC-62 melanoma): 31.5 µM | TGI (UO-31 renal): 36.4 µM
